These are literature values, as cited in US20040115263A1, “Use of bupropion for treating restless legs syndrome” (priority 2002, published 2004).

The conditions of series [1]: RLS patients.

Consider `CC(C)C[C@H]1C(=O)N2CCC[C@H]2[C@]2(O)O[C@](NC(=O)[C@@H]3C=C4c5cccc6[nH]c(Br)c(c56)C[C@H]4N(C)C3)(C(C)C)C(=O)N12` [Bromocriptine], for which the side effects reported entry in series [1] was “transient nasal stuffiness and lightheadedness in one patient”.

On to `N[C@@H](Cc1ccc(O)c(O)c1)C(=O)O` [L-dopa], for which the “efficacy in treating RLS” value (L-dopa given with a peripheral carboxylase inhibitor at a 10:1 ratio, patients) is “effective”. Further, the “cases in which augmentation is a complicating feature” value (human, in vivo) is given as 65-80%.
